Laboratory results: patent US6451818B1, “Therapeutic use of 1,6-dimethyl-8β-hydroxymethyl-10α-methoxyergoline” (Aventis Pharma S.A., priority 1998, dated 2002)

Experiments:
[1] = tested on: trophic factor-deprived motor neurons; test: Neuronal death in motor-neuron-enriched cultures in the absence of trophic factor; assay type: cell-based
Description: (§1) The motor-neuron-enriched cultures are prepared using the centrifugation method which was described by R. L. SCHNAAR and A. E. SCHAFFNER, J. Neurosci., 1, 204-217 (1981) and modified by W. CAMU and C. E. HENDERSON, J. Neurosci. Methods, 44, 59-70 (1992). The motor neurons are spread, at a density of 2500 cells per plate, on 35 mm culture plates which have previously been coated with laminin/ornithine in accordance with the method of A. G. ESTEVEZ et al., J. Neurosci., 18 (3), 923-931 (1998). The cultures are then maintained in L15 medium (GIBCO BRL) containing sodium bicarbonate (22 mM), conalbumin (0.1 mg/ml), putrescine (0.1 mM), insulin (5 μg/ml), sodium selenite ([…]), glucose (20 mM), progesterone (21 nM), penicillin (100 IU/ml) and streptomycin (100 μg/ml).
More than 70% of the cells are immunoreactive for the neurotrophin p75 receptor and the Islet ½ markers for spinal motor neurons. Approximately 70% of the motor neurons die by apoptosis 24 hours after the spreading if the culture is performed in the absence of a trophic factor. […]
(§2) The number of motor neurons is estimated by counting the labelled cells in an area of 0.4-1 cm^2 under a microscope which enlarges 200 times. In all cases, the values are expressed as a percentage of the number of motor neurons which are present in cultures maintained using trophic factors. […]

[2] = tested on: motor neurons (astrocyte/motor neuron co-cultures); test: Neuronal survival in astrocyte/motor neuron co-cultures; assay type: cell-based, rat; details: for % of labelled motor neurons, very large motor neurons: vehicle alone = 100 ± 2.8; for % of labelled motor neurons, all the motor neurons: vehicle alone = 100 ± 9.4
Description: as §1
(§3) The astrocytes are obtained from young, one-day-old rats using the slightly modified method of R. P. SANETO and J. DE VELLIS as described in Neurochemistry a practical approach (A. J. TURNER and H. A. St JOHN) IRL Press, Oxford-Washington D.C., pp. 27-63. The spinal cords are dissected out under sterile conditions and freed of meninges and dorsal ganglia. Five to ten spinal cords are transferred into PBS (phosphate buffered saline) and cut before being incubated at 37° C. for 25 minutes in PBS to which 0.25% trypsin has been added. The enzymatic treatment is stopped by adding 10 ml of Dulbecco's modified Eagle medium (DMEM), to which 10% fetal calf serum (FCS) has been added, and the cells are collected by centrifugation. Another step of mechanical dissociation is performed using the end of a 1 ml pipette. The cells are spread, at a density of 1.5-2×10^6 cells per 25 cm^2 of culture medium, in DMEM containing 10% FCS. After 2 days in vitro, the cultures are fed every day. When a visible monolayer of cells has been completed, the cultures are stirred at 250 rpm for 48 hours and, on the following day, the monolayers are treated with cytosine arabinoside (10^−5 M) for 48 hours. The astrocyte monolayers are then amplified to a density of five on 35 mm culture plates for initially 25 cm^2 culture flasks.
The cells are fixed in 4% paraformaldehyde and 0.1% glutaraldehyde in PBS (pH 7.4 and at 4° C. for 15 minutes) and in a cold methanolic solution. The cultures are then washed and the nonspecific sites are blocked with 10% goat serum and 2% bovine serum albumin (BSA) in PBS and treated for immunochemistry using antibodies against the p75 weak affinity neurotrophin receptor or a 200 kD neurofilament protein (Amersham) using the manufacturer's instructions and applying the avidin-biotin-DAB/hydrogen peroxide enhancement reaction.
The astrocytes are treated with 1,6-dimethyl-8β-hydroxymethyl-10α-methoxyergoline in the following manner: the product is dissolved in methanol, sterilized by filtration and used immediately after preparation. The treatment which is applied to the enriched motor neuron cultures is effected by adding aliquots of solutions of the products to be tested to the L15 medium by spreading. The astrocyte monolayers are exposed to the vehicle or to the solutions of the compound to be tested for 24 hours and at different concentrations. […]
as §2

[3] = tested on: motor neurons (co-cultures of astrocyte monolayers and motor neurons); test: Motor neuron survival, co-cultures of astrocyte monolayers and motor neurons; assay type: cell-based, rat; details: vehicle alone 43.9 ± 4
Description: as §1, §3
The spinal astrocyte cultures consist, to an extent of more than 98%, of flat, polygonal cells which are immunoreactive for the glial fibrillar acid protein (GFAP). The monolayers are exposed to the product to be tested and then incubated with the motor neuron medium in order to obtain a conditioned culture medium. […]
as §2

[4] = tested on: motor neurons (astrocyte-conditioned medium); test: Motor neuron survival in medium conditioned by treated spinal astrocyte monolayers (neurotrophic activity produced by spinal astrocytes); assay type: cell-based, rat; details: % of motor neurons in cultures with trophic factors
Description: as §1
as §3, with “When a visible monolayer of cells has been completed, the cultures are stirred at 250 rpm for 48 hours and, on the following day, the monolayers are treated with cytosine arabinoside (10^−5 M) for 48 hours. The astrocyte monolayers are then amplified to a density of five on 35 mm culture plates for initially 25 cm^2 culture flasks.” left out
as §2

CO[C@]12C[C@@H](CO)CN(C)[C@@H]1Cc1cn(C)c3cccc2c13 [1,6-Dimethyl-8β-hydroxymethyl-10α-methoxyergoline]
Neuronal arborization and cell morphology [1]: remain well preserved
Increase of the survival of trophic factor-deprived motor neurons ([1]; p<0.001): 60%
% of labelled motor neurons, very large motor neurons ([2]; 0.1 μM): 122.6 ± 8.2 %
% of labelled motor neurons, all the motor neurons ([2]; 0.1 μM): 123 ± 9.3 %
% of labelled motor neurons, very large motor neurons ([2]; 1 μM): 117 ± 5.6 %
% of labelled motor neurons, all the motor neurons ([2]; 1 μM): 158.9 ± 32 %
% of labelled motor neurons, all the motor neurons ([2]; 10 μM): 137.5 ± 19 %
Motor neuron survival in % ([3]; tested product 1 nM): 42.5 ± 4%
Motor neuron survival in % ([3]; tested product 10 nM): 48.9 ± 3 %
Motor neuron survival in % ([3]; tested product 100 nM): 57.4 ± 4 %
Motor neuron survival in % ([3]; tested product 1 μM): 68.7 ± 8 %
Motor neuron survival in % ([4]; dilution of the astrocyte-conditioned medium 1:4, vehicle alone 59.9 ± 8): 90.6 ± 4.9 %
Motor neuron survival in % ([4]; dilution of the astrocyte-conditioned medium 1:10, vehicle alone 45.4 ± 4.2): 74.8 ± 6.3 %
Motor neuron survival in % ([4]; dilution of the astrocyte-conditioned medium 1:50, vehicle alone 36.9 ± 3.2): 49.6 ± 5.3 %
